Legend:
[1] = biological target: T1, HiBiT-KRAS^G12D (Homo sapiens, UniProt P01116, G12D); test: cell-based; set-up: HiBiT-KRAS degradation, split nanoluciferase lytic detection; settings: GP5d; read-out: Dmax 24 h GP5d HiBiT [%]
T1 construct: HiBiT-tagged
Method: This formula was derived from the Growth Inhibition (GI) calculation used in the National Cancer Institute’s NCI-60 high-throughput screen. KRAS Degradation Assays via Detection of Split Nanoluciferase (HiBiT) To assess PROTAC-mediated degradation of HiBiT-tagged KRAS constructs, cells were seeded at 25 000 cells per well in culture medium into white bottom opaque 96-well plates (Perkin Elmer cat no. 5680). Plates were incubated at 37 °C, 5% CO2 in a humidified incubator over night to allow the cells to adhere. Test compounds (10 mM stock in DMSO) were added at logarithmic dose series using the HP Digital Dispenser D300 (Tecan), normalizing for added DMSO. […] Following incubation, 100 µL per well Promega Nano-Glo HiBiT lytic detection reagent mix (Promega Nano-Glo HiBiT Lytic Detection System #N3050), prepared according to the manufacturer´s instructions in the kit, were added. To allow for adequate cell lysis, plates were incubated on an orbital shaker for 15 min. and further incubated 30 min. at room temperature. Upon completion of cell lysis, luminescence was measured using an Envision plate reader using the Ultrasensitive Luminescence Protocol for 96-well plates. Luminescence levels were normalized by the values obtained with DMSO-treated samples and plotted as percent of DMSO control. DC50 values were computed using a three parametric logistic model. Dmax values represent the maximal extent of degradation observed and are stated as percent of control treatments.

[2] = biological target: T2, KRAS^G12D (Homo sapiens, UniProt P01116, G12D); set-up: endogenous; KRAS degradation by capillary electrophoresis immunodetection; settings: degrader; read-out: DC50 24 h GP5d
Method: (§1) Protein Detection by Capillary Electrophoresis Cells (50 000) were seeded the day before treatment into 96-well clear-flat bottom plates and incubated overnight (37 °C, humidified tissue culture incubator, 5% CO2). Compounds were added from DMSO stock solution using a digital dispenser and cells are incubated at 37 °C as specified (24 hours for KRAS degradation, 6 hours for determination of pERK levels). At the end of the incubation, medium was removed, cells washed with ice cold PBS, PBS removed and 50 µL lysis buffer (Meso Scale Discovery #R60TX-2) supplemented with 1:100 protease inhibitor solution, 1:100 phosphatase inhibitor I, 1:100 phosphatase inhibitor II (Meso Scale Discovery #R70AA-1), 0.5 µL/mL Benzonase (Novagen #70664-3) and 10 mM dithiothreitol added to each well. Plates with lysis buffer were immediately transferred to -80 °C freezer for at least 2 hours and then thawed on ice. Lysates were transferred to a 96 well V-bottom plate and insoluble debris was pelleted by centrifugation for 20 min. at 4 000 rpm. 40 µL of the supernatant were transferred to a fresh Eppendorf PCR plate. Analysis of protein levels was conducted using the Wes System, ProteinSimple (https://www.bio-techne.com/) as specified by the manufacturer. Briefly, Wes Master Mix (12-230 kDa WES Separation Module, 8 × 25 capillary cartridges, ProteinSimple #SM-W004) and molecular weight markers were prepared as specified in the manufacturer’s recommendations. To detect primary antibodies, anti-rabbit (Protein Simple #DM-001) or anti-mouse (Protein Simple #DM-002) detection modules were used. 7.2 µL lysate + 1.8 µL master mix were combined and heated to 95 °C for 5 min.

[3] = biological target: KRAS^G12C (Homo sapiens, UniProt P01116, G12C); set-up: endogenous; KRAS degradation by capillary electrophoresis immunodetection; settings: read-out: DC50 24 h NCI-H358
Method: as §1, with “Briefly, Wes Master Mix (12-230 kDa WES Separation Module, 8 × 25 capillary cartridges, ProteinSimple #SM-W004) and molecular weight markers were prepared as specified in the manufacturer’s recommendations. To detect primary antibodies, anti-rabbit (Protein Simple #DM-001) or anti-mouse (Protein Simple #DM-002) detection modules were used. 7.2 µL lysate + 1.8 µL master mix were combined and heated to 95 °C for 5 min.” left out

[4] = biological target: T2, KRAS^G12D; test: cell-based; set-up: endogenous; KRAS degradation by capillary electrophoresis immunodetection; settings: GP2d; read-out: Dmax 24 h GP2d [%]
Method: as §1, with “5 min. […] Next, we set out to test the ability of a single pan-KRAS degrading molecule, compound 4, to selectively suppress oncogenic signaling and proliferation in cancer cell lines driven by diverse KRAS mutants. To this end, we first confirmed degradation of KRAS by compound 4 in KRAS-dependent (GP2d, SW620 and NCI-H358 expressing KRAS^G12D, - G12V or -G12C, respectively) as well as in KRAS independent (A-375, HEK293) cell lines (Fig. 3A, fig. S4A). […] Both inhibition and degradation repressed the established markers of MAPK signaling pERK (fig. S4B-D) and DUSP6 (Fig. 3B, fig. S4E) in KRAS dependent cell lines. […] Neither degradation nor inhibition had appreciable antiproliferative effects in the KRAS independent cell lines A-375 and HEK293 (Fig. 3C, fig. S4F).” for “5 min.”

[5] = biological target: KRAS^G12V (Homo sapiens, UniProt P01116, G12V); test: cell-based; set-up: endogenous; KRAS degradation by capillary electrophoresis immunodetection; settings: SW-620; read-out: Dmax 24 h SW620 [%]
Method: as §1, with “5 min. […] Next, we set out to test the ability of a single pan-KRAS degrading molecule, compound 4, to selectively suppress oncogenic signaling and proliferation in cancer cell lines driven by diverse KRAS mutants. To this end, we first confirmed degradation of KRAS by compound 4 in KRAS-dependent (GP2d, SW620 and NCI-H358 expressing KRAS^G12D, - G12V or -G12C, respectively) as well as in KRAS independent (A-375, HEK293) cell lines (Fig. 3A, fig. S4A). […] Both inhibition and degradation repressed the established markers of MAPK signaling pERK (fig. S4B-D) and DUSP6 (Fig. 3B, fig. S4E) in KRAS dependent cell lines. […] Neither degradation nor inhibition had appreciable antiproliferative effects in the KRAS independent cell lines A-375 and HEK293 (Fig. 3C, fig. S4F).” for “5 min.”

Sequence of KRAS^G12V (P01116 whole entry G12V): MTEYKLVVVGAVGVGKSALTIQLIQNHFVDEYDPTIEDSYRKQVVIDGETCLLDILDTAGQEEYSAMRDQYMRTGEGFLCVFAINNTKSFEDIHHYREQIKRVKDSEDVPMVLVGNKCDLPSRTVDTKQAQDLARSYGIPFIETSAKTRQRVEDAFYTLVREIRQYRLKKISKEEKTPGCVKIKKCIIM
T1 sequence (P01116 whole entry G12D): as the sequence (P01116 whole entry G12V) above, with V12D counted along it
T2 sequence (P01116 whole entry G12D): as the sequence (P01116 whole entry G12V) above, with V12D counted along it
Sequence of KRAS^G12C (P01116 whole entry G12C): as the sequence (P01116 whole entry G12V) above, with V12C counted along it

| Dmax [1] | DC50 [2] | DC50 [3] | Dmax [4] | Dmax [5] | Compound |
| --- | --- | --- | --- | --- | --- |
| 95% | 31.8 nM | 241 nM | 96% | 88% | Cc1ncsc1-c1ccc(CNC(=O)[C@@H]2C[C@@H](O)CN2C(=O)[C@@H](NC(=O)CCCCCN2CCCN(c3nccc(-c4noc([C@@]5(C)CCCc6sc(N)c(C#N)c65)n4)n3)[C@@H](C)C2)C(C)(C)C)cc1 [compound 3] |
|  |  |  | < 15% | < 15% | Cc1ncsc1-c1ccc(CNC(=O)C2CC(O)CN2C(=O)C(c2cc(OCCCCN3CCCN(c4nccc(-c5noc(C6(C)CCCc7sc(N)c(C#N)c76)n5)n4)C(C)C3)no2)C(C)C)cc1 (stereo not shown) [compound 5] |
| 95% | 2.1 nM |  | 99% | 83% | Cc1ncsc1-c1ccc([C@H](CO)NC(=O)[C@@H]2C[C@@H](O)CN2C(=O)[C@H](C(C)C)n2cc(OCCCCN3CCCN(c4nccc(-c5noc([C@@]6(C)CCCc7sc(N)c(C#N)c76)n5)n4)[C@@H](C)C3)nn2)cc1 [compound 7, ACBI3] |
| 94% | 0.9 nM | 25.1 nM | 96% | 89% | Cc1ncsc1-c1ccc(CNC(=O)[C@@H]2C[C@@H](O)CN2C(=O)[C@@H](c2cc(OCCCCN3CCCN(c4nccc(-c5noc([C@@]6(C)CCCc7sc(N)c(C#N)c76)n5)n4)[C@@H](C)C3)no2)C(C)C)cc1 [compound 4] |
| 100% | 607 nM |  |  | 100% | Cc1ncsc1-c1ccc(CNC(=O)[C@@H]2C[C@@H](O)CN2C(=O)[C@@H](NC(=O)COCCCN2CCCN(c3nccc(-c4noc([C@@]5(C)CCCc6sc(N)c(C#N)c65)n4)n3)[C@@H](C)C2)C(C)(C)C)cc1 [compound 2] |
